Experimental findings from US10054581B1, “Inhibitors of notch signaling pathway and use thereof in treatment of cancers” (Ecole Polytechnique Federale de Lausanne (EPFL), priority 2011, dated 2018) are described below.

Entries after “also recorded” stand apart in the source; their conditions may differ.

The subject of series [1] is Notch2-intracellular domain (N2-ICD). Nature of the series: N2-ICD mediated pathway activation, luciferase reporter. The format is cell-based. For orientation: Reporter assays use an easily measured gene product as a stand-in for the process of interest.
Series [2] concerns the target T1, NICD, MAML1 and CSL/RBP-jk (Homo sapiens, UniProt P46531+Q06330+Q92585).
T1 construct: expressed in transfected cells; host or cells: HeLa cells (NICD-GFP and MAML1-FLAG transfected; CSL/RBP-jk endogenous)
Nature of the series: Microscopy of NICD-GFP, MAML1-FLAG and CSL/RBP-jk localization in HeLa cells. The format is cell-based. How it is done:
To perform immunofluorescence staining, HeLa cells or C2C12 cells were grown on cover slips. Cells were washed with 1× ice-cold PBS, fixed with 4% PFA for 5 minutes at room temperature and permeabilized using 0.3% Triton X-100. Subsequently permeabilized cells were blocked for 20 minutes with 1% BSA for 20 minutes at room temperature. Cells were incubated with appropriate primary antibodies for […] at room temperature. Alexa Fluor-488 conjugated secondary antibodies were used to detect primary antibodies. Cells were counterstained with DAPI and mounted in fluorescent mounting media. Fluorescent images were viewed and captured using Zeiss Axioplan microscope at Bioimaging and optics core facility at EPFL.
This raises several possibilities about the mechanism of action of 6-(4-Tert-Butylphenoxy)Pyridin-3-Amine (I3). For example, 6-(4-Tert-Butylphenoxy)Pyridin-3-Amine (I3) treatment could impair nuclear localization of the NICD. A second possible mechanism of inhibition could be targeting of one or more individual components of the transcriptional activation complex in the nucleus. […] In parallel, the 6-(4-Tert-Butylphenoxy)Pyridin-3-Amine (I3) mediated pathway inhibition was determined by Notch driven luciferase measurement (data not shown). […]

The subject of series [3] is RPMI8402. Nature of the series: Annexin V apoptosis, RPMI8402. The format is cell-based, human. The settings on record: 10 μM, 7 days. As to the method: (§1) FIGS. 6A-6D show 6-(4-Tert-Butylphenoxy)Pyridin-3-Amine (I3) induces G0/G1 cell cycle arrest and apoptosis in human T cell acute lymphoblastic leukemia cell lines and human breast cancer cell line HCC1187. […] Percentage of Annexin V positive (apoptotic) cell population was measured using flow cytometry.
(§2) To quantitate the percentage of apoptotic cells, AnnexinV and 7AAD staining was performed. Thymic cells were suspended in 300 μl of 1× AnnexinV binding buffer (BD Biosciences, San Diego, USA) and incubated with 10 μl of AnnexinV-Cy5 antibody and 10 μl of 7AAD (BD Biosciences, San Diego, USA). Samples were incubated for 15 minutes at room temperature. FACS was performed with in one hour of antibody staining.
(§3) This 6-(4-Tert-Butylphenoxy)Pyridin-3-Amine (I3) mediated proliferative arrest could be due to induction of apoptosis or cell cycle arrest during different phases of cell cycle. […] Therefore to further elucidate the mechanisms responsible for 6-(4-Tert-Butylphenoxy)Pyridin-3-Amine (I3) mediated proliferative arrest cell cycle and apoptosis analyses were carried out. […] To investigate cell death, Annexin V staining was performed and proportion of apoptotic (AnnexinV positive) cell population was determined by flow cytometry analyses after 7 days of treatment.

The subject of series [4] is HCC1187. Put plainly: Annexin V apoptosis, HCC1187. The format is cell-based, human. The conditions noted are these: 10 μM, 7 days. As to the method: as §1, §2, §3
In series [5] the test system is CUTL1. Put plainly: Annexin V apoptosis, CUTL1. The format is cell-based, human. The settings on record: 10 μM, 7 days. As to the method: as §1, §2, §3
The test system of series [6] is KOPTK1. Put plainly: Annexin V apoptosis, KOPTK1. Format: cell-based, human. The settings on record: 10 μM, 7 days. As to the method: as §1, §2, §3
A short description of series [7]: Body weight changes in mice. The format is in vivo, mouse. The settings on record: 25 mg/kg, 5 consecutive days. As to the method:
C57B16 mice were intra peritoneal (i.p) injected with oil or 25 mg/kg of I3 or 10 mg/kg of CPA, once a day for 5-7 days. Mice were weighed using a weighing scale on day 0, day 3 and day 5. On day 8, intestinal tissue, spleen and thymus were harvested for analyses.
In in vitro culture assays, chemical compound 6-(4-Tert-Butylphenoxy)Pyridin-3-Amine (I3) was able to block Notch1 and Notch2 mediated pathway activation. Therefore, Applicants hypothesized that treatment of mice with 6-(4-Tert-Butylphenoxy)Pyridin-3-Amine (I3) may lead to a goblet cell metaplasia of the intestine. To test this hypothesis, mice were intra peritoneally (i.p) injected with 25 mg/kg of 6-(4-Tert-Butylphenoxy)Pyridin-3-Amine (I3) for 7 consecutive days. On day 8, animals were sacrificed and intestinal tissues were fixed and embedded in paraffin. Histological analyses were carried out using Alcian blue to stain for goblet cells. […] Similarly, the effect of 6-(4-Tert-Butylphenoxy)Pyridin-3-Amine (I3) on body weight changes was also monitored. Mice were injected for 5 consecutive days with 25 mg/kg of 6-(4-Tert-Butylphenoxy)Pyridin-3-Amine (I3) and the changes in body mass were recorded.

T1 sequence (P46531 1754-2555 limits assumed): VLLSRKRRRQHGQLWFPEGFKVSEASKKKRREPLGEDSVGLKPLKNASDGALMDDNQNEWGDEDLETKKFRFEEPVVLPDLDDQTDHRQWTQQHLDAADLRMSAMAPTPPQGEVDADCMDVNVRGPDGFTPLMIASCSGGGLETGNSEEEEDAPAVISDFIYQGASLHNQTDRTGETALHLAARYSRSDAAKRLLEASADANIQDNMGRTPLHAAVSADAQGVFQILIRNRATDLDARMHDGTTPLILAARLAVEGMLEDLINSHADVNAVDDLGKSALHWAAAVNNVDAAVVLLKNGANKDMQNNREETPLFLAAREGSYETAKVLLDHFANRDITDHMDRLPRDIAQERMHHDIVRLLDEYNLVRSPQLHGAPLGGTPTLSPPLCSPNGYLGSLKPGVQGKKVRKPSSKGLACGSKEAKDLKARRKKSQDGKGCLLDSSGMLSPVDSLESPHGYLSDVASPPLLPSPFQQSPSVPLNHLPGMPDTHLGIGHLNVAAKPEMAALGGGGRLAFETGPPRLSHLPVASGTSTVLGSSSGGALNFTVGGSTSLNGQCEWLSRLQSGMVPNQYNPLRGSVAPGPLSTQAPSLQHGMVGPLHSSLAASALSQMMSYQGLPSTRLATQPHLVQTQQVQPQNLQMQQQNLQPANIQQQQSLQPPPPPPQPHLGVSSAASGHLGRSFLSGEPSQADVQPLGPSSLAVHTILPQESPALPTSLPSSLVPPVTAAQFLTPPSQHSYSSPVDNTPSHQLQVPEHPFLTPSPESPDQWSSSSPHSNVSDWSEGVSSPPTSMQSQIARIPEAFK
T1 sequence (Q92585 whole entry): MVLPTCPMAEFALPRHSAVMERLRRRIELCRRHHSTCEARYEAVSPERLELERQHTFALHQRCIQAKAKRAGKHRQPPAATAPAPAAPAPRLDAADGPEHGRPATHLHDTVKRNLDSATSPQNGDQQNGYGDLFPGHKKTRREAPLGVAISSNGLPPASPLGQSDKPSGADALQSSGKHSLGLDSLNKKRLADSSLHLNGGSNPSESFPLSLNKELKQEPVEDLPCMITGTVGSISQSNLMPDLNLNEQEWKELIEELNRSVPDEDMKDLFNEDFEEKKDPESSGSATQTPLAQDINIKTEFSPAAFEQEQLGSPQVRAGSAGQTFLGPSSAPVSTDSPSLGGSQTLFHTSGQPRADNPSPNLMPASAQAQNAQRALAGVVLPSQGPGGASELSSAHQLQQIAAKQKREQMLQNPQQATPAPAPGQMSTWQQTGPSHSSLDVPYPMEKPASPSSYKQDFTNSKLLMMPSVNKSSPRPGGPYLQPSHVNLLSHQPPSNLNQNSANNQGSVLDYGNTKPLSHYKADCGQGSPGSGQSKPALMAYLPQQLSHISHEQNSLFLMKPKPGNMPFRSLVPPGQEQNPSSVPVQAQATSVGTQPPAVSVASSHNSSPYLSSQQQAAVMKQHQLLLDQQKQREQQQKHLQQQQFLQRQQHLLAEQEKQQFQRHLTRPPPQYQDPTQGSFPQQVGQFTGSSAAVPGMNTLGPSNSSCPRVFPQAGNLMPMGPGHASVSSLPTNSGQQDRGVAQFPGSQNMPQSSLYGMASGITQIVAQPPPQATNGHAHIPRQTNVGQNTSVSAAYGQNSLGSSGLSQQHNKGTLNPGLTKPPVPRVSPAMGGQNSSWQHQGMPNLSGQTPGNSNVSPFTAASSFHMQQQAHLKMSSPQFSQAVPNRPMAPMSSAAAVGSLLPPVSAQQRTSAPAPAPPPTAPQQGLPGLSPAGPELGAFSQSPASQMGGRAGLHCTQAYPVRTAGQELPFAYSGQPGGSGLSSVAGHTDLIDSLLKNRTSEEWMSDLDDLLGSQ
T1 sequence (Q06330 whole entry): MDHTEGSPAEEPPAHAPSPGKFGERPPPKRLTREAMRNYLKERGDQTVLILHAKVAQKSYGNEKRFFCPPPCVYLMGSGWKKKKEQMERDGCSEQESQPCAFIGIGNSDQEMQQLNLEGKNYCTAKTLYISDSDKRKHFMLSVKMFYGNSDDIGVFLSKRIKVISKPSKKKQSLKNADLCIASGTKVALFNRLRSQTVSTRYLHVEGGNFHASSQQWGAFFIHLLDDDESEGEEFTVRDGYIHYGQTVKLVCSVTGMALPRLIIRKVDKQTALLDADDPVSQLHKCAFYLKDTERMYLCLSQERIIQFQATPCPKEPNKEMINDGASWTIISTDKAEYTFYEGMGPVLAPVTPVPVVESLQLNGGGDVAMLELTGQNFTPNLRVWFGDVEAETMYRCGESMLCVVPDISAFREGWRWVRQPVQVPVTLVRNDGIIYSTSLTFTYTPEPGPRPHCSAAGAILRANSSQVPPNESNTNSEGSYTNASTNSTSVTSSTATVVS

As for `CC(C)(C)c1ccc(Oc2ccc(N)cn2)cc1` [I3, 6-(4-Tert-Butylphenoxy)Pyridin-3-Amine], in series [1], the “pathway activation by N2-ICD” value was “could also block pathway activation by Notch1-intracellular domain (NICD) and Notch2-intracellular domain (N2-ICD); also recorded: inhibits pathway activation via intracellular domains of Notch1 (NICD) and Notch2 (N2-ICD)”. In addition, the “co-localization of NICD, MAML1 and CSL/RBP-jk in sub-nuclear compartments” value in series [2] (800 ng NICD-GFP + 1 μg MAML1-FLAG, I3 10 μM, 24 hours) is “did not perturb the translocation and co-localization of NICD-GFP and MAML1 into sub-nuclear compartment; also recorded: did not perturb their distribution in the nucleus; also recorded: does not impede co-localization of NICD, MAML1 and CSL/RBP-jk in the sub-nuclear compartments”. The “nuclear localization of NICD-GFP” value in series [2] (HeLa cells transfected with NICD-GFP) is “not perturbed; also recorded: did not alter its nuclear localization”. In addition, the “apoptosis (Annexin V positive cells)” value is listed as “induces significant apoptosis” in series [3], “induces apoptosis” in series [4], “induces significant apoptosis” in series [5] and “induces significant apoptosis” in series [6]. Also, the body weight result in series [7] is “did not cause a loss in the body weight”.
